Laboratory results reported in patent publication US20010000177A1, “Novel class of thiomorpholino substituted thiazoles” (priority 1999, published 2001).
Converted amounts (≈) assume the structure as drawn. Marks after values point to notes of the source that are not given here.

Key:
Candida albican = details: Antimicrob. Agents Chemother., (1980), 18(2), 231-9; cited from earlier work
[1] = system: Candida and Cryptococcus strains (organism not given); test: Broth microdilution antifungal activity, Table II third MIC/MCC column pair; format: cell-based; details: for MIC = Minimum inhibitory concentration (50% Inhibition): 48 hrs, 35° C., YNB broth pH 7.0; for MCC = Minimum cytolytic concentration: subculture on SDA plate
Description: (§1) Organisms: Three strains of Candida (Candida parpsilosis, Candida tropicalis, Candida albicans-ATCC 36082) as well as Cryptococcus neoformans were used for the initial testing. Active compounds were then tested against fluconazole resistant Candida albicans, Candida krusei, Torulopsis glabrata, and Cryptococcus neoformans along with Sporothrix shenkii and Aspergillus flavus in the secondary round of testing. All clinical strains used in this study were blood culture isolates from the Clinical Microbiology Laboratory of Harbor-UCLA Medical Center, Torrance, Calif. The organisms were maintained on Sabourahd Dextrose Agar slants at 4° C. For experimentation, singlet suspensions of each organism were prepared by growing the yeast overnight at 27° C. on a rotating drum in yeast-nitrogen base broth (YNB) with amino acids (Difco, Detroit, Mich.), pH 7.0 with 0.05M morpholinepropanesulfonic acid (MOPS). The suspension was then centrifuged and washed twice with 0.85% NaCl. This was followed by sonication of the washed cell suspension for 4s (Branson Sonifier, model 350, Danbury, Conn.). The singlet blastospores were counted in a hemocytometer and adjusted to the desired concentration in 0.85% NaCl.
(§2) Antifungal Activity: The antifungal activity of the compounds and Fluconazole against the Candida and Cryptococcus strains were determined using a modification of a broth microdilution technique. Test compounds were diluted in DMSO to a 1.0 mg/ml ratio then diluted to 64 μg/ml in YNB broth, pH 7.0 with MOPS (Fluconazole was used as the control). This was to provide a working solution of each compound. Using a 96-well plate, wells 1 and 3 through 12 were prepared with YNB broth, […] dilutions of the compound solution were made in wells 2 through 11 (concentration ranges were 64 to 0.125 μg/ml). Well one served as a sterility control and blank for the spectrophotometric assays. Well twelve served as a growth control. The microtiter plates were inoculated with 10 ul in each of well 2 through 11 (final inoculum size was 10^4 organisms/ml). Inoculated plates were incubated for 48 hrs., at 35° C. The MIC values were determined spectrophotometrically by measuring the absorbance at 420 nm (Automatic Microplate Reader, DuPont Instruments, Wilmington, Del.) after agitation of the plates for 2 min with a vortex-mixer (Vorte-Genie 2 Mixer, Scientific Industries, Inc., Bolemia, N.Y.). […] With the turbidity assay this was defined as the lowest drug concentration at which turbidity in the well was <50% of the control (IC50) Minimal Cytolytic Concentrations (MCC) were determined by subculturing all wells from the 96-well plate onto a Sabourahd Dextrose Agar (SDA) plate and incubated for 1 to 2 days at 35° C. and the viability was checked.

[2] = system: Candida and Cryptococcus strains (organism not given); test: Broth microdilution antifungal activity, Table II second MIC/MCC column pair; format: cell-based; details: second column pair of Table II; for MIC = Minimum inhibitory concentration (50% Inhibition): 48 hrs, 35° C., YNB broth pH 7.0; for MCC = Minimum cytolytic concentration: subculture on SDA plate
Description: as §1, §2

[3] = system: Candida and Cryptococcus strains (organism not given); test: Broth microdilution antifungal activity, Table II first MIC/MCC column pair; format: cell-based; details: first column pair of Table II; for MIC = Minimum inhibitory concentration (50% Inhibition): 48 hrs, 35° C., YNB broth pH 7.0; for MCC = Minimum cytolytic concentration: subculture on SDA plate
Description: as §1, with “Active compounds were then tested against fluconazole resistant Candida albicans, Candida krusei, Torulopsis glabrata, and Cryptococcus neoformans along with Sporothrix shenkii and Aspergillus flavus in the secondary round of testing.” left out
as §2

[4] = system: Candida and Cryptococcus strains (organism not given); test: Broth microdilution antifungal activity, Table II fourth MIC/MCC column pair; format: cell-based; details: fourth column pair of Table II; for MIC = Minimum inhibitory concentration (50% Inhibition): 48 hrs, 35° C., YNB broth pH 7.0; for MCC = Minimum cytolytic concentration: subculture on SDA plate
Description: as §1, with “Active compounds were then tested against fluconazole resistant Candida albicans, Candida krusei, Torulopsis glabrata, and Cryptococcus neoformans along with Sporothrix shenkii and Aspergillus flavus in the secondary round of testing.” left out
as §2

Structure (SMILES)	MIC50 (Candida albican)	MIC = Minimum inhibitory concentration (50% Inhibition) [1]	MCC = Minimum cytolytic concentration [1]	MIC = Minimum inhibitory concentration (50% Inhibition) [2]	MCC = Minimum cytolytic concentration [2]	MIC = Minimum inhibitory concentration (50% Inhibition) [3]	MCC = Minimum cytolytic concentration [3]	MIC = Minimum inhibitory concentration (50% Inhibition) [4]	MCC = Minimum cytolytic concentration [4]
N=C(N)c1ccc(-c2nnc(-c3ccc(C(=N)N)cc3)o2)cc1	> 60 mg/L	–	–	–	–	–	–	–	–
CN(C)Cc1ccc(-c2csc(-c3ccc([N+](=O)[O-])cc3)n2)cc1 [Example 1x, 2-(4′-nitrophenyl)-4-[4″-(dimethylaminomethyl)phenyl]thiazole]	–	1 mg/L (≈ 2.95 µM)	2 µg/mL	1 mg/L (≈ 2.95 µM)	2 µg/mL	1 µg/mL (≈ 2.95 µM)	2 µg/mL	2 mg/L (≈ 5.89 µM)	2 µg/mL
CN(C)CCN(C)Cc1ccc(-c2csc(-c3ccc(Cl)cc3)n2)cc1 [Example 1u, 2-(4′-chlorophenyl)-4-[4″-(N-methyl-N-(2-dimethylaminoethyl)aminomethyl)-phenyl]thiazole]	–	4 mg/L (≈ 10.4 µM)	4 µg/mL	4 mg/L (≈ 10.4 µM)	4 µg/mL	8 µg/mL (≈ 20.7 µM)	8 µg/mL	4 mg/L (≈ 10.4 µM)	4 µg/mL
C=CCN(C)Cc1ccc(-c2csc(-c3ccc([N+](=O)[O-])cc3)n2)cc1 [Example 1h, 2-(4′-nitrophenyl)-4-[4″-(N-methyl-N-allylaminomethyl)phenyl]thiazole]	–	0.125 mg/L (≈ 0.342 µM)	0.5 µg/mL	0.25 mg/L (≈ 0.684 µM)	1 µg/mL	0.5^c μg/ml	2 µg/mL	0.5 mg/L (≈ 1.37 µM)	2 µg/mL
CN(C)CCSCc1ccc(-c2csc(-c3ccc(Cl)cc3)n2)cc1 [Example 1rr, 2-(4′-chlorophenyl)-4-[4″-[(2-dimethylaminoethyl-thio)methyl]phenyl]thiazole]	–	4 mg/L (≈ 10.3 µM)	8 µg/mL	4 mg/L (≈ 10.3 µM)	8 µg/mL	4 µg/mL (≈ 10.3 µM)	8 µg/mL	4 mg/L (≈ 10.3 µM)	8 µg/mL
C=CCN(C)Cc1ccc(-c2csc(-c3ccc(Cl)cc3)n2)cc1 [Example 1g, 2-(4′-chlorophenyl)-4-[4″-(N-methyl-N-allylaminomethyl)phenyl]thiazole]	–	2 mg/L (≈ 5.64 µM)	8 µg/mL	4 mg/L (≈ 11.3 µM)	8 µg/mL	2 µg/mL (≈ 5.64 µM)	8 µg/mL	2 mg/L (≈ 5.64 µM)	8 µg/mL
CCCN(C)Cc1ccc(-c2csc(-c3ccc([N+](=O)[O-])cc3)n2)cc1 [Example 1o, 2-(4′-nitrophenyl)-4-[4″-(N-methyl-N-propylaminomethyl)phenyl]thiazole]	–	2 mg/L (≈ 5.44 µM)	32 µg/mL	1 mg/L (≈ 2.72 µM)	4 µg/mL	1 µg/mL (≈ 2.72 µM)	4 µg/mL	0.125 mg/L (≈ 0.34 µM)	2 µg/mL
CN(CCO)Cc1ccc(-c2csc(-c3ccc(Cl)cc3)n2)cc1 [Example 1ee, 2-(4′-chlorophenyl)-4-[4″-(N-methyl-N-(2-hydroxyethyl)aminomethyl)-phenyl]thiazole]	–	4 mg/L (≈ 11.1 µM)	8 µg/mL	2 mg/L (≈ 5.57 µM)	16 µg/mL	4 µg/mL (≈ 11.1 µM)	16 µg/mL	2 mg/L (≈ 5.57 µM)	16 µg/mL
